Source: patent US20210290514A1, “An Antimicrobial Combination Composition Comprising Glycerol Derivatives and Bicyclic Compounds” (CLARIANT INTERNATIONAL LIMITED, priority 2018, published 2021)

Assays:
Assay in all cases: in vitro growth inhibition of a microbial strain by compositions formulated to pH 5.5
Format in all cases: cell-based
[1] = system: Candida albicans
Method: (§1) Several antimicrobial combinations compositions were formulated to pH of 5.5. These compositions were tested for their ability to inhibit in vitro the growth of a microbial strain. “Green” indicates a substantial inhibition, “Yellow” indicates an intermediate inhibition, and “Red” indicates little to no inhibition.

[2] = system: Staphylococcus aureus
Method: as §1

[3] = system: Aspergillus brasilliensis
Method: as §1

[4] = system: Echerichia coli
Method: as §1

[5] = system: Pseudomonas aeruginosa
Method: as §1

Row | Compound | antimicrobial activity, Candida albicans ([1]; 0.5%) | antimicrobial activity, Candida albicans ([1]; 0.8%) | antimicrobial activity, Candida albicans ([1]; 1.0%) | antimicrobial activity, Candida albicans ([1]; 1.5%) | antimicrobial activity, Staphylococcus aureus ([2]; 0.5%) | antimicrobial activity, Staphylococcus aureus ([2]; 0.8%) | antimicrobial activity, Staphylococcus aureus ([2]; 1.0%) | antimicrobial activity, Staphylococcus aureus ([2]; 1.5%) | antimicrobial activity, Aspergillus brasilliensis ([3]; 0.5%) | antimicrobial activity, Aspergillus brasilliensis ([3]; 0.8%) | antimicrobial activity, Aspergillus brasilliensis ([3]; 1.0%) | antimicrobial activity, Aspergillus brasilliensis ([3]; 1.5%) | antimicrobial activity, Echerichia coli ([4]; 0.5%) | antimicrobial activity, Echerichia coli ([4]; 0.8%) | antimicrobial activity, Echerichia coli ([4]; 1.0%) | antimicrobial activity, Echerichia coli ([4]; 1.5%) | antimicrobial activity, Pseudomonas aeruginosa ([5]; 0.5%) | antimicrobial activity, Pseudomonas aeruginosa ([5]; 0.8%) | antimicrobial activity, Pseudomonas aeruginosa ([5]; 1.0%) | antimicrobial activity, Pseudomonas aeruginosa ([5]; 1.5%)
1 | CCCCCCCCOCC(O)CO (stereo not shown) [Octylglycerin, 3-[(n-octyl)oxy]-1,2-propanediol] | Green | Green | Green | Green | Green | Green | Green | Green | Yellow | Green | Yellow | Yellow | Green | Green | Green | Green | Green | Green | Green | Green
2 | CCCCC(CC)COCC(O)CO (stereo not shown) [Velsan ethylhexylglycerin, 3-[(2-ethylhexyl)oxy]-1,2-propanediol] | Green | Green | Green | Green | Green | Green | Green | Green | Red | Red | Red | Red | Green | Green | Green | Green | Green | Green | Green | Green
